Consider 31 compounds from US6391882B1, “4,5,6 and 7-indole and indoline derivatitives, their preparation and use” (H. Lundbeck A/S, priority 1998, dated 2002).

The target of series [1] is T1, Serotonin reuptake (whole rat brain synaptosomes) (Rattus norvegicus, UniProt P31652).
T1 construct: from tissue; host or cells: whole rat brain synaptosomes
The series can be described thus: Inhibition of 3H-5-HT uptake into rat brain synaptosomes. Format: biochemical. How it is done: Inhibition of ^3H-5-HT Uptake Into Rat Brain Synaptosomes
Using this method the ability of drugs to inhibit the accumulation of ^3H-5-HT into whole rat brain synaptosomes is determined in vitro.

Series [2] concerns the target T2, cloned human 5-HT1A receptors (Homo sapiens, UniProt P08908).
T2 construct: expressed in transfected cells; host or cells: HeLa cells (HA7)
T2 sequence (P08908 1-422): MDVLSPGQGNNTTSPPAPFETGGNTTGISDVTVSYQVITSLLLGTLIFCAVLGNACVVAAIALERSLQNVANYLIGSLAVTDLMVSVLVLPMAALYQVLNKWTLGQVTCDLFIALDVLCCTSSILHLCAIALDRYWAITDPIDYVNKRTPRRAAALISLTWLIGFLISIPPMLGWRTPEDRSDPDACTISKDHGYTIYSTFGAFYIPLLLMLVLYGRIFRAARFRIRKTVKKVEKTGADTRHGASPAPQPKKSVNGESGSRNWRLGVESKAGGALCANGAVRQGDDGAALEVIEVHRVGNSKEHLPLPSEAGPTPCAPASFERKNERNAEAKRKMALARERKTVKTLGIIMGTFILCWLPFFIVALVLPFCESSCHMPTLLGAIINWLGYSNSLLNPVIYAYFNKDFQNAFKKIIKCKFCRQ
Nature of the series: Inhibition of 3H-5-CT binding to human 5-HT1A receptors. How it is done:
The affinity of the compounds of the invention to 5-HT1A receptors was determined by measuring the inhibition of binding of a radioactive ligand at 5-HT1A receptors as described in the following test:
Inhibition of ^3H-5-CT Binding to Human 5HT1A Receptors
By this method the inhibition by drugs of the binding of the 5-HT1A agonist ^3H-5-carboxamido tryptamine (^3H-5-CT) to cloned human 5-HT1A receptors stably expressed in transfected HeLa cells (HA7) (Fargin, A. et al, J. Biol. Chem., 1989, 264, 14848) is determined in vitro. The assay was performed as a modification of the method described by Harrington, M. A. et al, J. Pharmacol. Exp. Ther., 1994, 268, 1098. Human 5-HT1A receptors (40 μg of cell homogenate) were incubated for 15 minutes at 37° C. in 50 mM Tris buffer at pH 7.7 in the presence of ^3H-5-CT. Non-specific binding was determined by including 10 μM of metergoline. The reaction was terminated by rapid filtration through Unifilter GF/B filters on a Tomtec Cell Harvester. Filters were counted in a Packard Top Counter.

The mark [3] stands for this setting: 3H-5-HT accumulation into whole rat brain synaptosomes, in vitro, read-out: Inhibition of Serotonin reuptake IC50.
[4] abbreviates: cloned human 5-HT1A receptors in transfected HeLa cells (HA7), 15 minutes at 37° C., pH 7.7.

Where a name gives a salt, the structure may show the parent alone. Read-outs that look alike come from different tables or passages of the source.

T1 sequence (P31652 whole entry): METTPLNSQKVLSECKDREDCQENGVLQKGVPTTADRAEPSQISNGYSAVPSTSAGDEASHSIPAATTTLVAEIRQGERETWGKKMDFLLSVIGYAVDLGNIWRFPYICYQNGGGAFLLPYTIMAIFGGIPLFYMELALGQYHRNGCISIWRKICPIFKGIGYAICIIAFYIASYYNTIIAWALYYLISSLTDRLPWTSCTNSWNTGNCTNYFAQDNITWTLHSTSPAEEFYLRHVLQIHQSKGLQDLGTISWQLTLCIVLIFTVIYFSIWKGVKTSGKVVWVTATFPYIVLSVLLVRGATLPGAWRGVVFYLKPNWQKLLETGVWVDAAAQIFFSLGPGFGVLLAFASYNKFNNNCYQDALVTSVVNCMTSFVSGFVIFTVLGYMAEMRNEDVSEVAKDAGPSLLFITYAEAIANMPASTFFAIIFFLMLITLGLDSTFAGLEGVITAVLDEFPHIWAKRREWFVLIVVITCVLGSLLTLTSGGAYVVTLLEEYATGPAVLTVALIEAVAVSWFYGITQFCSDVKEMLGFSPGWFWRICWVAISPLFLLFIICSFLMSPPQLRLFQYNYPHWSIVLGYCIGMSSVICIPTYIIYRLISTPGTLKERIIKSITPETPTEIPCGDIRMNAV

For orientation: IC50 means the concentration needed to halve the response being measured. As to `N#Cc1c[nH]c2cccc(N3CCN(CCc4coc5ccccc45)CC3)c12` [Compound 4p, 1-(2-(3-Benzofuranyl)ethyl)-4-(3-cyano-1H-indol-4-yl)piperazine], the figures for the IC50 in series [1] (setting [3]) and in series [2] (setting [4]) were 22 nM and 4.3 nM, respectively. In the case of `Fc1ccc2occ(CCCN3CC=C(c4cccc5[nH]ccc45)CC3)c2c1` [Compound 4s, 1-(3-(5-Fluoro-3-benzofuranyl)-1-propyl)-4-(1H-indol-4-yl)-1,2,3,6-tetrahydropyridine], the IC50 in series [1] is 24 nM; in series [2] (setting [4]) it was 16 nM. For `Fc1ccc2[nH]cc(CCN3CCN(c4cccc5[nH]ccc45)CC3)c2c1` [Compound 2c, 1-(2-(5-Fluoro-1H-indol-3-yl)ethyl)-4-(1H-indol-4-yl)piperazine], in that order: 2.3 nM and 27 nM. As to `Clc1ccc2[nH]cc(CCN3CCN(c4ccc5[nH]ccc5c4)CC3)c2c1` [Compound 2u, 1-(2-(5-Chloro-1H-indol-3-yl)ethyl)-4-(1H-indol-5-yl)piperazine], the values for the IC50 in series [1] and in series [2] (setting [4]) were 20 nM and 310 nM, respectively. For `COC(=O)c1cc(N2CCN(CCc3c[nH]c4ccccc34)CC2)c2cc[nH]c2c1` [Compound 4f, 1-(2-(1H-indol-3-yl)ethyl)-4-(6-methoxycarbonyl-1H-indol-4-yl)piperazine], in that order: 14 nM and 1200 nM. The like results for `Cc1cccc2occ(CCN3CCN(c4cccc5[nH]ccc45)CC3)c12` [Compound 4r, 1-(1H-Indol-4-yl)-4-(2-(4-methyl-3-benzofuranyl)ethyl)piperazine] were, in that order, 12 nM and 10 nM. Compound `N#Cc1cccc2c(CCN3CCN(c4cccc5[nH]ccc45)CC3)c[nH]c12` [Compound 1l, 1-(2-(7-Cyano-1H-indol-3-yl)ethyl)-4-(1H-indol-4-yl)piperazine] registered an IC50 in series [2] (setting [4]) of 2.5 nM. `Clc1cccc2c(CCN3CCN(c4cccc5[nH]ccc45)CC3)coc12` [Compound 4v, 1-(2-(7-Chloro-3-benzofuranyl)ethyl)-4-(1H-indol-4-yl)piperazine]: the values for the concentration for half-maximal inhibition (IC50) in series [1] and in series [2] (setting [4]) were 4.4 nM and 4.3 nM, respectively.

The compound `Cc1oc2c(F)c(F)c(F)c(F)c2c1CCN1CCN(c2cccc3[nH]ccc23)CC1` [Compound 1i, 1-(2-(2-Methyl-4,5,6,7-tetrafluoro-3-benzofuranyl)ethyl)-4-(1H-indol-4-yl)piperaziine] came in with an IC50 in series [2] (setting [4]) of 3.4 nM. For `Clc1ccc2c(CCN3CC=C(c4cccc5[nH]ccc45)CC3)c[nH]c2c1` [Compound 2g, 1-(2-(6-Chloro-1H-indol-3-yl)ethyl)-4-(1H-indol-4-yl)-1,2,3,6-tetrahydropyridine], the IC50 in series [1] is 22 nM; in series [2] (setting [4]), 2.8 nM. For `Fc1ccc2[nH]cc(CCN3CC=C(c4cccc5[nH]ccc45)CC3)c2c1` [Compound 2h, 1-(2-(5-Fluoro-1H-indol-3-yl)ethyl)-4-(1H-indol-4-yl)-1,2,3,6-tetrahydropyridine], in that order: 2.5 nM and 11 nM. Turning to `Fc1ccc2occ(CCCN3CCN(c4cccc5[nH]ccc45)CC3)c2c1` [Compound 1h, 1-(3-(5-Fluoro-3-benzofuranyl)-1-propyl)-4-(1H-indol-4-yl)piperazine], the values for the IC50 in series [1] (setting [3]) and in series [2] (setting [4]) were 6.8 nM and 11 nM, respectively.

For `Fc1ccc2occ(CCN3CCN(c4cccc5[nH]ccc45)CC3)c2c1` [Compound 1c, 1-(2-(5-Fluoro-3-benzofuranyl)ethyl)-4-(1H-indol-4-yl)piperazine], the IC50 was determined as 57 nM in series [1] and 12 nM in series [2] (setting [4]). For `Clc1ccc2c(CCN3CCC(c4cccc5[nH]ccc45)CC3)c[nH]c2c1` [Compound 5a], in that order: 19 nM and 14 nM. As to `Brc1cccc2c(CCN3CCN(c4cccc5[nH]ccc45)CC3)c[nH]c12` [Compound 2i, 1-(2-(7-Bromo-1H-indol-3-yl)ethyl)-4-(1H-indol-4-yl)piperazine], the figures for the IC50 in series [1] and in series [2] (setting [4]) were 5.9 nM and 5.4 nM, respectively. For `c1cc(N2CCN(CCc3coc4ccccc34)CC2)c2cc[nH]c2c1` [Compound 1a, 1-(2-(3-Benzofuranyl)ethyl)-4-(1H-indol-4-yl)piperazine], in that order: 31 nM and 10 nM. Regarding `c1cc(N2CCN(Cc3coc4ccccc34)CC2)c2cc[nH]c2c1` [Compound 1b, 1-(3-Benzofuranylmethyl)-4-(1H-indol-4-yl)piperazine], the IC50 in series [1] (setting [3]) came out at 290 nM; in series [2] (setting [4]) it was 210 nM.

Regarding `N#Cc1c[nH]c2cccc(N3CCN(CCc4c[nH]c5cccc(Cl)c45)CC3)c12` [Compound 4x, 1-(2-(4-Chloro-1H-indol-3-yl)ethyl)-4-(3-cyano-1H-indol-4-yl)piperazine], the 50% inhibitory concentration (IC50) in series [2] (setting [4]) came to 5.4 nM. For `N#Cc1c[nH]c2cccc(N3CCN(CCc4c[nH]c5cc(Cl)ccc45)CC3)c12` [Compound 4o, 1-(2-(6-Chloro-1H-indol-3-yl)ethyl)-4-(3-cyano-1H-indol-4-yl)piperazine], the IC50 was determined as 19 nM in series [1] and 2.9 nM in series [2] (setting [4]). For the compound `Fc1ccc2c(CCCN3CCN(c4cccc5[nH]ccc45)CC3)noc2c1` [Compound 4a, 1-(3-(6-Fluoro-1,2-benzisoxazol-3-yl)-1-propyl)-4-(1H-indol-4-yl)piperazine], the IC50 in series [1] (setting [3]) came out at 360 nM; in series [2] (setting [4]), 9.8 nM. For `COC(=O)c1cc(N2CCN(CCc3coc4ccc(F)cc34)CC2)c2cc[nH]c2c1` [Compound 4h, 1-(2-(5-Fluoro-3-benzofuranyl)ethyl)-4-(6-methoxycarbonyl-1H-indol-4-yl)piperazine], in that order: 71 nM and 3100 nM.

In the case of `Clc1ccc2occ(CCN3CCN(c4cccc5[nH]ccc45)CC3)c2c1` [Compound 4t, 1-(2-(5-Chloro-3-benzofuranyl)ethyl)-4-(1H-indol-4-yl)piperazine], the figures for the IC50 in series [1] and in series [2] (setting [4]) were 99 nM and 9.4 nM, respectively.

Turning to `Brc1ccc2[nH]cc(CCN3CCN(c4ccc5[nH]ccc5c4)CC3)c2c1` [Compound 2t, 1-(2-(5-Bromo-1H-indol-3-yl)ethyl)-4-(1H-indol-5-yl)piperazine], the IC50 in series [1] is 39 nM; in series [2] (setting [4]), 230 nM. As for `Cc1ccc2occ(CCN3CCN(c4cccc5[nH]ccc45)CC3)c2c1` [Compound 4q, 1-(1H-Indol-4-yl)-4-(2-(5-methyl-3-benzofuranyl)ethyl)piperazine], the IC50 in series [1] worked out at 34 nM; in series [2] (setting [4]), 21 nM. On to `c1cc(N2CCN(CCc3n[nH]c4ccccc34)CC2)c2cc[nH]c2c1` [Compound 1j, 1-(2-(3-Indazolyl)ethyl)-4-(1H-indol-4-yl)piperazine], for which the IC50 in series [1] (setting [3]) was 360 nM; in series [2], 22 nM.

In the case of `OCc1cc(N2CCN(CCc3c[nH]c4ccc(F)cc34)CC2)c2cc[nH]c2c1` [Compound 3a, 1-(2-(5-Fluoro-1H-indol-3-yl)ethyl)-4-(6-hydroxymethyl-1H-indol-4-yl)piperazine], the IC50 in series [1] came out at 17 nM; in series [2] (setting [4]), 910 nM. For `Clc1ccc2c(CCN3CCN(c4cccc5[nH]ccc45)CC3)c[nH]c2c1` [Compound 2a, 1-(2-(6-Chloro-1H-indol-3-yl)ethyl)-4-(1H-indol-4-yl)piperazine], in that order: 21 nM and 3.4 nM. With `COC(=O)c1cc(N2CCN(CCc3c[nH]c4cc(Cl)ccc34)CC2)c2cc[nH]c2c1` [Compound 4g, 1-(2-(6-Chloro-1H-indol-3-yl)ethyl)-4-(6-methoxycarbonyl-1-H-indol-4-yl)piperazine], the IC50 in series [1] was 23 nM; in series [2] (setting [4]), 350 nM. Consider `Cc1ccc2c(CCN3CCN(c4cccc5[nH]ccc45)CC3)coc2c1` [Compound 4u, 1-(1H-Indol-4-yl)-4-(2-(6-methyl-3-benzofuranyl)ethyl)piperazine], for which the 50% inhibitory concentration (IC50) in series [1] was determined as 93 nM; in series [2] (setting [4]), 7 nM. The like results for `c1ccc2c(CCN3CCN(c4cccc5[nH]ccc45)CC3)c[nH]c2c1` [Compound 1e, 1-(2-(1H-indol-3-yl)ethyl)-4-(1H-indol-4-yl)piperazine] were, in that order, 4.4 nM and 6.9 nM.

The melting point is the temperature, or range, at which the solid turns liquid. As for `Fc1ccc2occ(CN3CCN(c4cccc5[nH]ccc45)CC3)c2c1` (as salt: hydrochloride) [Compound 4l, 1-(5-Fluoro-3-benzofuranylmethyl)-4-(1H-indol-4-4-yl)piperazine], the melting point lay in the range of 238 to 240 °C.
